pIC50: −log10 of the molar value. One block for each compound: values may come before it.
What was measured:
MDA-MB-231 [1] = assay: Cytotoxicity against human MDA-MB-231 cells measured after 24 to 72 hrs by MTT cell proliferation assay; assay type: functional, cell-based
MCF7 [2] = assay: Cytotoxicity against human MCF7 cells assessed as cell killing by SRB colorimetric assay; assay type: functional, cell-based
CWR22R [3] = assay: Cytotoxicity against human 22Rv1 cells assessed as cell viability measured after 48 hrs incubation by MTT assay; assay type: functional, cell-based; settings: 22Rv1, 48 h
BT-474 = assay: Anticancer activity against human BT-474 cells assessed as cell viability measured after 48 hrs by MTT assay; assay type: functional, cell-based; settings: BT-474, 48 h
[4] = target: Hepatocyte growth factor receptor (Homo sapiens, UniProt P08581); assay: Inhibition of c-Met phosphorylation in human BT-474 cells using Z-LYTE Tyr6 peptide substrate measured after 1 hr incubation by Z-LYTE c-Met Kinase assay; assay type: cell-based
Chain of Hepatocyte growth factor receptor (P08581 whole entry): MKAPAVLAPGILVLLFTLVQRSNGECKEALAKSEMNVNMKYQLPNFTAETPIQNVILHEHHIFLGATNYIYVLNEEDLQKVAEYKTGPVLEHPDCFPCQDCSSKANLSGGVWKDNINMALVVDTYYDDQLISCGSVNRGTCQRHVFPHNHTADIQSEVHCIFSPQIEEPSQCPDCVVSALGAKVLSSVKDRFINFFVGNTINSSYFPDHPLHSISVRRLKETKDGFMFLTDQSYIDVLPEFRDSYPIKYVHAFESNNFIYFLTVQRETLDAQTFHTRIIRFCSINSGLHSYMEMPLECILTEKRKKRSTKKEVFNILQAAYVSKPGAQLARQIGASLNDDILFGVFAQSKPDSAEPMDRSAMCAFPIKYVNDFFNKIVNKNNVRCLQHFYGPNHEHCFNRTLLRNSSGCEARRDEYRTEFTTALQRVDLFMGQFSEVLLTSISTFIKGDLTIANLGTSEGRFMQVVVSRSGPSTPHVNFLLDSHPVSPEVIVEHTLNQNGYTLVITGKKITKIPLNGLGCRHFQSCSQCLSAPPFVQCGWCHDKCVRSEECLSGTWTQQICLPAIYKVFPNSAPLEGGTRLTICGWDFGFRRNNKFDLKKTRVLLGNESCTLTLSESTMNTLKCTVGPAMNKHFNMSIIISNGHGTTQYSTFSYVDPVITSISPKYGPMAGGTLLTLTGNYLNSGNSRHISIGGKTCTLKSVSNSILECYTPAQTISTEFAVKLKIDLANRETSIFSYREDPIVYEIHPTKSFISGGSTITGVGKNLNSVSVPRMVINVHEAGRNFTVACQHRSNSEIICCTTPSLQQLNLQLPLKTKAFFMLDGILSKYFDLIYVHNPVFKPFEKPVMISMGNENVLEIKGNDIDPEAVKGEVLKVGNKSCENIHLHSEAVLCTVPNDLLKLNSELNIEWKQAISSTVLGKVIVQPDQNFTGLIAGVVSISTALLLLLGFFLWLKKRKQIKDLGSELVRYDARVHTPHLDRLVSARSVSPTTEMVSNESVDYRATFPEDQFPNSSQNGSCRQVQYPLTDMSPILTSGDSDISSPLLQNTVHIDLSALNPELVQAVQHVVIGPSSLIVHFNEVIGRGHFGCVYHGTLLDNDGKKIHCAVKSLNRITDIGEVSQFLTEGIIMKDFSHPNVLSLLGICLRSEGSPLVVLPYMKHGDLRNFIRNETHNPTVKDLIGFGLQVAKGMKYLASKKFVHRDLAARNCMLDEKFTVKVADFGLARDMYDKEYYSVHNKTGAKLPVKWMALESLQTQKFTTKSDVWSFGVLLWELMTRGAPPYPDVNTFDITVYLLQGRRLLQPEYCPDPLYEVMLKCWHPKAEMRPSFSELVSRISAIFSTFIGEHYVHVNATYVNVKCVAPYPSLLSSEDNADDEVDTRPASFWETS

PC-3 [5] = assay: Antiproliferative activity against human PC-3 cells assessed as inhibition of cell proliferation measured after 2 to 4 hrs incubation by MTT assay; assay type: functional, cell-based
DU-145 = assay: Antiproliferative activity against human DU-145 cells assessed as inhibition of cell proliferation measured after 2 to 4 hrs incubation by MTT assay; assay type: functional, cell-based
PC-3 [6] = assay: Cytotoxicity against human PC-3 cells assessed as cell viability measured after 24 hrs incubation followed by incubated 3 hrs with MTS reagent by MTS assay; assay type: functional, cell-based
CWR22R [7] = assay: Cytotoxicity against human 22Rv1 cells assessed as cell viability measured after 24 hrs incubation followed by incubated 3 hrs with MTS reagent by MTS assay; assay type: functional, cell-based
HCT-116 = assay: Antiproliferative activity against human HCT116 cells assessed as inhibition of cell proliferation measured after 2 to 4 hrs incubation by MTT assay; assay type: functional, cell-based
MDA-MB-231 [8] = assay: Cytotoxicity against human MDA-MB-231 cells assessed as cell growth inhibition incubated for 72 hrs by alamarblue staining based assay; assay type: functional; settings: MDA-MB-231, 72 h
MDA-MB-231 [9] = assay: Cytotoxicity against human MDA-MB-231 cells assessed as cell viability measured after 48 hrs by MTT assay; assay type: functional, cell-based; settings: MDA-MB-231, 48 h
SW-620 = assay: Cytotoxicity against human SW620 cells assessed as cell growth measured after 24 hrs incubation by Sulforhodamine B (SRB) assay; assay type: functional, cell-based; settings: SW-620, 24 h
SW480 = assay: Cytotoxicity against human SW480 cells assessed as cell growth measured after 24 hrs incubation by Sulforhodamine B (SRB) assay; assay type: functional, cell-based; settings: SW480, 24 h
MCF7 [10] = assay: Cytotoxicity against human MCF7 cells assessed as cell viability measured after 48 hrs by MTT cell proliferation assay; assay type: functional, cell-based; settings: MCF7, 48 h
NCI-H292 = assay: Cytotoxicity against human NCI-H292 cells; assay type: functional, cell-based
NCI-H460 = assay: Cytotoxicity against human NCI-H460 cells; assay type: functional, cell-based
A549 = assay: Cytotoxicity against human A549 cells assessed as cell viability measured after 24 hrs incubation by MTT assay; assay type: functional, cell-based; settings: A549, 24 h
[11] = Cytotoxicity against p53-/- transgenic mouse derived T11 cells assessed as cell viability measured after 48 hrs by Cell Titer Glo assay; assay type: functional, cell-based; settings: T11, 48 h

SMILES: COc1cc2ccnc3c2c(c1O)N(C)C=C3 [ISOAAPTAMINE]
pIC50 (MDA-MB-231 [1]): 4.52

SMILES: O=C(Cc1c[nH]c2ccccc12)N/N=C1\C(=O)Nc2ccc([N+](=O)[O-])cc21
pIC50 (MCF7 [2]): 6.36

SMILES: CCC/C=C\CC[C@@H](O)C[C@H]1CCC2=C(C(=O)OCCCCN(O)C(=N)N)[C@H](CC/C=C\CCC)NC(N)=[N+]21
pIC50 (CWR22R [3]): 5.30

pIC50 (BT-474): 4.82 | pIC50 [4]: 4.70
SMILES: [O-][N+]12CCC[C@]3(O)CCCCCC[C@H]4CCN5CCC[C@@H](CCCCCC[C@@H](CC1)O[C@@H]32)[C@@H]5O4 (some centres not stated)

pIC50 (PC-3 [5]): 6.92 | pIC50 (DU-145): 6.27
SMILES: COC1=C(Br)[C@H](O)[C@](O)(CC#N)C=C1Br

SMILES: O=C1c2ccc(Br)cc2-[n+]2ccc3c([nH]c4cc(Br)ccc43)c21
pIC50 (PC-3 [6]): 5.14 | pIC50 (CWR22R [7]): 6.16

SMILES: CC[C@@H]1C=CCC[C@]2(C[C@H]3CC[C@@]4(O)[C@@H](C(=O)OCCCCCCCCCCCCCCCC(=O)N(CCCN)C[C@@H](O)CCN)[C@@]5(CCC[C@H](C)O5)N=C(N2)N34)O1
pIC50 (HCT-116): 5.33

SMILES: N=C(N)NCCCCNC(=O)[C@@]1(O)[C@H](Cc2c[nH]c3cc(Br)ccc23)[C@@](O)(Cc2c[nH]c3cc(Br)ccc23)C(=O)N1CCCCNC(=N)N [EUSYNSTYELAMIDE B]
pIC50 (MDA-MB-231 [8]): 5.30

SMILES: CCC/C=C\CC[C@@H](O)C[C@H]1CCC2=C(C(=O)OCCCCN(O)C(=N)N)[C@H](CC/C=C\CCC)NC(=N)N21
pIC50 (CWR22R [3]): 5.30

SMILES: O=C1c2cccc(Cl)c2-[n+]2ccc3c([nH]c4ccccc43)c21
pIC50 (MDA-MB-231 [9]): 6.52

SMILES: CN1C(=O)/C(=N\NC(=O)Cc2c[nH]c3ccccc23)c2ccccc21
pIC50 (MCF7 [2]): 5.89

SMILES: Cn1ccc2c(c1=O)C(=O)c1nccc3c1c-2nc1ccccc13 [NEOAMPHIMIDINE]
pIC50 (SW-620): 7.22 | pIC50 (SW480): 8.22

SMILES: Cn1c2ccccc2c2cc(C3=NCCc4c3[nH]c3ccccc43)ccc21
pIC50 (MCF7 [10]): 5.26

SMILES: C/C=C(/C)C(=O)OC[C@H]1c2c(O)c(OC)c(C)c(OC(=O)/C=C/c3ccccc3)c2C[C@H]2[C@H]3C4=C(C[C@@H]([C@H](C#N)N12)N3C)C(=O)C(C)=C(OC)C4=O
pIC50 (NCI-H292): 4.83 | pIC50 (NCI-H460): 4.83

SMILES: C/C=C(/C)C(=O)OC[C@H]1c2c(c(O)c(C)c3c2OCO3)C[C@H]2[C@H]3C4=C(C[C@@H]([C@H](C#N)N12)N3C)C(=O)C(C)=C(OC)C4=O
pIC50 (A549): 4.60

SMILES: CC[C@H]1C=CCC[C@@]2(C[C@@H]3CC[C@@H]4[C@H](C(=O)OCCCCCCCCCCCCCCCC(=O)N(CCCN)C[C@@H](O)CCN)[C@]5(CCC[C@@H](C)O5)NC(=N2)N34)O1
pIC50 [11]: 7.05

SMILES: CC[C@@H]1CCCC[C@]2(C[C@H]3CC[C@@]4(O)[C@@H](C(=O)OCCCCCCCCCCCCCCCCC(=O)N(CCCN)C[C@@H](O)CCN)[C@@]5(CCC[C@H](C)O5)N=C(N2)N34)O1
pIC50 (HCT-116): 5.40
